Experimental data published in ChEMBL document CHEMBL1141233, “3-(5-Chloro-2,4-dihydroxyphenyl)-pyrazole-4-carboxamides as inhibitors of the Hsp90 molecular chaperone” (Bioorg Med Chem Lett, 2005).

Assays:
HCT-116 = experiment: Inhibition of cell proliferation in HCT116 human colon cancer cell line; assay type: functional
Heat shock protein HSP90 = Heat shock protein HSP90 (Homo sapiens, UniProt P07900+P08238); experiment: Binding affinity to Hsp90 by fluorescent polarization assay; assay type: protein assay

Row | GI50 (HCT-116) | IC50 (Heat shock protein HSP90) | Compound
1 |  | 7.1 µM | O=C(Nc1ccccc1)c1cn[nH]c1-c1cc(Cl)c(O)cc1O
2 | > 80 µM | 12.8 µM | O=C(NCc1ccccc1)c1cn[nH]c1-c1cc(Cl)c(O)cc1O
3 | > 80 µM | 10.7 µM | COc1cccc(CNC(=O)c2c[nH]nc2-c2cc(Cl)c(O)cc2O)c1
4 | > 80 µM | 14.7 µM | O=C(Nc1ccc(O)cc1)c1c[nH]nc1-c1cc(Cl)c(O)cc1O
5 | 11.6 µM |  | CC(=O)c1ccc(NC(=O)c2cn[nH]c2-c2cc(Cl)c(O)cc2O)cc1
6 | > 80 µM | 11.7 µM | COc1cccc(NC(=O)c2c[nH]nc2-c2cc(Cl)c(O)cc2O)c1
7 | > 80 µM | 6 µM | COc1ccc(NC(=O)c2c[nH]nc2-c2cc(Cl)c(O)cc2O)cc1
8 | 56.2 µM | 5.35 µM | O=C(NCc1ccc(F)cc1)c1cn[nH]c1-c1cc(Cl)c(O)cc1O
9 | 60.7 µM | 6 µM | COc1ccc(CNC(=O)c2c[nH]nc2-c2cc(Cl)c(O)cc2O)cc1
10 |  | 35.6 µM | O=C(NCc1ccco1)c1cn[nH]c1-c1cc(Cl)c(O)cc1O
11 | 59.7 µM | 31.5 µM | CC(=O)Nc1ccc(NC(=O)c2c[nH]nc2-c2cc(Cl)c(O)cc2O)cc1
12 |  | > 50 µM | O=C(Nc1ccccn1)c1cn[nH]c1-c1cc(Cl)c(O)cc1O
13 | > 80 µM | 6.9 µM | O=C(Nc1ccc(Cl)cc1)c1cn[nH]c1-c1cc(Cl)c(O)cc1O
14 | 45 µM | 5.4 µM | O=C(NCc1cccc(C(F)(F)F)c1)c1cn[nH]c1-c1cc(Cl)c(O)cc1O
15 |  | > 50 µM | COc1ccc(N(C)C(=O)c2c[nH]nc2-c2cc(Cl)c(O)cc2O)cc1

Row | Compound | GI50 (HCT-116) | IC50 (Heat shock protein HSP90)
16 | NS(=O)(=O)c1ccc(CNC(=O)c2cn[nH]c2-c2cc(Cl)c(O)cc2O)cc1 | > 80 µM | 
